Experimental data from ChEMBL document CHEMBL1208728, “Design, synthesis, and structure-activity relationships of pyrazole derivatives as potential FabH inhibitors” (Bioorg Med Chem Lett, 2010).
In brackets after ≈: the same amount, converted by molar mass.

Assays:
Format in all cases: functional
Bacillus subtilis = experiment: Antimicrobial activity against Bacillus subtilis ATCC 6633 by MTT assay
Pseudomonas aeruginosa = experiment: Antimicrobial activity against Pseudomonas aeruginosa ATCC 13525 by MTT assay
Enterobacter cloacae = experiment: Antimicrobial activity against Enterobacter cloacae ATCC 13047 by MTT assay
Escherichia coli = experiment: Antimicrobial activity against Escherichia coli ATCC 35218 by MTT assay
Staphylococcus aureus = experiment: Antimicrobial activity against Staphylococcus aureus ATCC 6538 by MTT assay
Enterococcus faecalis = experiment: Antimicrobial activity against Streptococcus faecalis ATCC 9790 by MTT assay

SMILES	MIC (Bacillus subtilis)	MIC (Pseudomonas aeruginosa)	MIC (Enterobacter cloacae)	MIC (Escherichia coli)	MIC (Staphylococcus aureus)	MIC (Enterococcus faecalis)
CC(=O)N1N=C(c2ccc(C)c(C)c2)CC1c1ccc(Cl)cc1 (stereo not drawn)	> 50 µg/mL	6.25 µg/mL (≈ 19.1 µM)	6.25 µg/mL (≈ 19.1 µM)	12.5 µg/mL (≈ 38.2 µM)	1.56 µg/mL (≈ 4.78 µM)	50 µg/mL (≈ 153 µM)
COc1ccc(C2CC(c3ccc(Br)cc3)=NN2C(C)=O)cc1 (stereo not drawn)	25 µg/mL (≈ 67 µM)	1.56 µg/mL (≈ 4.18 µM)	3.12 µg/mL (≈ 8.37 µM)	50 µg/mL (≈ 134 µM)	12.5 µg/mL (≈ 33.5 µM)	6.25 µg/mL (≈ 16.7 µM)
COc1ccc(C2CC(c3ccc(C)c(C)c3)=NN2C(C)=O)cc1 (stereo not drawn)	12.5 µg/mL (≈ 38.8 µM)	3.12 µg/mL (≈ 9.69 µM)	12.5 µg/mL (≈ 38.8 µM)	25 µg/mL (≈ 77.5 µM)	3.12 µg/mL (≈ 9.69 µM)	12.5 µg/mL (≈ 38.8 µM)
CC(=O)N1N=C(c2ccc(Cl)c(Cl)c2)CC1c1ccc(Cl)cc1 (stereo not drawn)	0.78 µg/mL (≈ 2.12 µM)	25 µg/mL (≈ 68 µM)	> 50 µg/mL	25 µg/mL (≈ 68 µM)	25 µg/mL (≈ 68 µM)	6.25 µg/mL (≈ 17 µM)
CC1(C)S[C@@H]2[C@H](NC(=O)Cc3ccccc3)C(=O)N2[C@H]1C(=O)O [PENICILLIN G]	1.56 µg/mL (≈ 4.67 µM)	6.25 µg/mL (≈ 18.7 µM)	3.12 µg/mL (≈ 9.35 µM)	3.12 µg/mL (≈ 9.35 µM)	6.25 µg/mL (≈ 18.7 µM)	1.56 µg/mL (≈ 4.67 µM)
CC(=O)N1N=C(c2ccc(Cl)c(Cl)c2)CC1c1ccc(F)cc1 (stereo not drawn)	1.56 µg/mL (≈ 4.45 µM)	12.5 µg/mL (≈ 35.6 µM)	12.5 µg/mL (≈ 35.6 µM)	12.5 µg/mL (≈ 35.6 µM)	12.5 µg/mL (≈ 35.6 µM)	1.56 µg/mL (≈ 4.45 µM)
CC(=O)N1N=C(c2ccc(C)c(C)c2)CC1c1ccccc1 (stereo not drawn)	> 50 µg/mL	12.5 µg/mL (≈ 42.8 µM)	> 50 µg/mL	> 50 µg/mL	25 µg/mL (≈ 85.5 µM)	25 µg/mL (≈ 85.5 µM)
CC(=O)N1N=C(c2ccccc2F)CC1c1ccccc1 (stereo not drawn)	12.5 µg/mL (≈ 44.3 µM)	25 µg/mL (≈ 88.6 µM)	> 50 µg/mL	> 50 µg/mL	25 µg/mL (≈ 88.6 µM)	25 µg/mL (≈ 88.6 µM)
CC(=O)N1N=C(c2ccc(Cl)cc2)CC1c1ccc(Br)cc1 (stereo not drawn)	6.25 µg/mL (≈ 16.5 µM)	> 50 µg/mL	> 50 µg/mL	12.5 µg/mL (≈ 33.1 µM)	25 µg/mL (≈ 66.2 µM)	6.25 µg/mL (≈ 16.5 µM)
COc1cc(OC)cc(C2CC(c3ccc(Br)cc3)=NN2C(C)=O)c1 (stereo not drawn)	50 µg/mL (≈ 124 µM)	3.12 µg/mL (≈ 7.75 µM)	12.5 µg/mL (≈ 31 µM)	50 µg/mL (≈ 124 µM)	6.25 µg/mL (≈ 15.5 µM)	25 µg/mL (≈ 62 µM)
CC(=O)N1N=C(c2ccccc2F)CC1c1ccc(F)cc1 (stereo not drawn)	25 µg/mL (≈ 83.2 µM)	12.5 µg/mL (≈ 41.6 µM)	> 50 µg/mL	50 µg/mL (≈ 166 µM)	> 50 µg/mL	50 µg/mL (≈ 166 µM)
CC(=O)N1N=C(c2ccc(Cl)c(Cl)c2)CC1c1ccc(Br)cc1 (stereo not drawn)	1.56 µg/mL (≈ 3.79 µM)	25 µg/mL (≈ 60.7 µM)	12.5 µg/mL (≈ 30.3 µM)	12.5 µg/mL (≈ 30.3 µM)	> 50 µg/mL	3.12 µg/mL (≈ 7.58 µM)
CC(=O)N1N=C(c2ccc(Br)cc2)CC1c1ccc(Br)cc1 (stereo not drawn)	12.5 µg/mL (≈ 29.6 µM)	6.25 µg/mL (≈ 14.8 µM)	25 µg/mL (≈ 59.2 µM)	25 µg/mL (≈ 59.2 µM)	3.12 µg/mL (≈ 7.4 µM)	25 µg/mL (≈ 59.2 µM)
CC(=O)N1N=C(c2ccc(Cl)cc2)CC1c1ccccc1 (stereo not drawn)	12.5 µg/mL (≈ 41.8 µM)	> 50 µg/mL	12.5 µg/mL (≈ 41.8 µM)	25 µg/mL (≈ 83.7 µM)	> 50 µg/mL	25 µg/mL (≈ 83.7 µM)
CC(=O)N1N=C(c2ccccc2F)CC1c1ccc(C)cc1 (stereo not drawn)	25 µg/mL (≈ 84.4 µM)	> 50 µg/mL	12.5 µg/mL (≈ 42.2 µM)	25 µg/mL (≈ 84.4 µM)	> 50 µg/mL	25 µg/mL (≈ 84.4 µM)
COc1cc(OC)cc(C2CC(c3ccc(Cl)cc3)=NN2C(C)=O)c1 (stereo not drawn)	6.25 µg/mL (≈ 17.4 µM)	25 µg/mL (≈ 69.7 µM)	> 50 µg/mL	12.5 µg/mL (≈ 34.8 µM)	6.25 µg/mL (≈ 17.4 µM)	50 µg/mL (≈ 139 µM)
CC(=O)N1N=C(c2ccc(Cl)c(Cl)c2)CC1c1ccccc1Cl (stereo not drawn)	3.12 µg/mL (≈ 8.5 µM)	12.5 µg/mL (≈ 34 µM)	25 µg/mL (≈ 68 µM)	12.5 µg/mL (≈ 34 µM)	25 µg/mL (≈ 68 µM)	12.5 µg/mL (≈ 34 µM)
CC(=O)N1N=C(c2ccc(Cl)c(Cl)c2)CC1c1ccccc1 (stereo not drawn)	6.25 µg/mL (≈ 18.8 µM)	25 µg/mL (≈ 75 µM)	25 µg/mL (≈ 75 µM)	12.5 µg/mL (≈ 37.5 µM)	> 50 µg/mL	12.5 µg/mL (≈ 37.5 µM)
CC(=O)N1N=C(c2ccc(Br)cc2)CC1c1ccccc1Cl (stereo not drawn)	25 µg/mL (≈ 66.2 µM)	6.25 µg/mL (≈ 16.5 µM)	3.12 µg/mL (≈ 8.27 µM)	12.5 µg/mL (≈ 33.1 µM)	25 µg/mL (≈ 66.2 µM)	50 µg/mL (≈ 132 µM)
CC(=O)N1N=C(c2ccc(Cl)cc2)CC1c1ccccc1Cl (stereo not drawn)	6.25 µg/mL (≈ 18.8 µM)	12.5 µg/mL (≈ 37.5 µM)	12.5 µg/mL (≈ 37.5 µM)	12.5 µg/mL (≈ 37.5 µM)	25 µg/mL (≈ 75 µM)	50 µg/mL (≈ 150 µM)
CC(=O)N1N=C(c2ccc(Cl)cc2)CC1c1ccc(Cl)cc1 (stereo not drawn)	12.5 µg/mL (≈ 37.5 µM)	6.25 µg/mL (≈ 18.8 µM)	25 µg/mL (≈ 75 µM)	12.5 µg/mL (≈ 37.5 µM)	25 µg/mL (≈ 75 µM)	6.25 µg/mL (≈ 18.8 µM)
COc1ccc(C2CC(c3ccc(Cl)cc3)=NN2C(C)=O)cc1 (stereo not drawn)	12.5 µg/mL (≈ 38 µM)	25 µg/mL (≈ 76 µM)	> 50 µg/mL	25 µg/mL (≈ 76 µM)	> 50 µg/mL	25 µg/mL (≈ 76 µM)
CC(=O)N1N=C(c2ccc(Cl)c(Cl)c2)CC1c1ccc(C)cc1 (stereo not drawn)	6.25 µg/mL (≈ 18 µM)	25 µg/mL (≈ 72 µM)	25 µg/mL (≈ 72 µM)	> 50 µg/mL	> 50 µg/mL	12.5 µg/mL (≈ 36 µM)
